Measured values from patent US20160264636A1, “PEPTIDE INHIBITORS OF TEAD/YAP-TAZ INTERACTION” (UNIVERSITE PIERRE ET MARIE CURIE (PARIS 6), priority 2013, published 2016).
pIC50: −log10 of the molar value. Peptide text beside a SMILES is read from it.

Assays:
[1] = tested on: MP41 uveal melanoma cells; assay: MTT cytotoxicity assay, MP41; type: cell-based, human; settings: 72 h
Protocol: (§1) The cytotoxicity of penetrating peptides or chemotherapeutic agents, alone or in combination, was evaluated by the (3-(4,5-dimethylthiazol-2-yl)-2,5-diphenyltetrazolium bromide) tetrazolium (MTT) reduction assay. The cells were seeded in 96-well plates (100 μL/well) at a cell density defined from growth curves. After 24 hours of incubation, cells were treated with the peptides for 72 hours. The wells were rinsed two times with RPMI. After washing, 10 μl of stock MTT solution (5 mg/ml; MTT (SIGMA #M-2128) in PBS Dubecco's 1× without Ca^2+ and Mg^2+) was added to a final volume of 100 μl of culture medium. Cell lines were incubated for additional 4 hours at 37° C. under humid atmosphere with 5% (v/v) CO2. The formation of blue formazan crystals was detected under a microscope. An equal volume of 10% SDS (MERCK, #926.238) in 10 mM HCl was added to each well and the plate was placed in the incubator overnight to dissolve formazan crystals. The plates were mixed to ensure complete solubilisation of formazan crystals and absorbance was measured at 570 nm and 620 nm. The percentage of viable cells was estimated using the formula: % cell viability=ΔOD(570-620) treated/ΔOD(570-620)control×100.
MP41, MP46 and MP66 cell lines come from uveal melanoma patient derived xenografts. They were cultured in RPMI medium supplemented with 20% of FCS.
All the uveal melanoma cell lines were treated for 72 h with different concentrations of the peptides TAZ, “LV”, YAP and TEAD (SEQ ID NO: 35, 36, 37). Cytotoxicity was analysed as described in example 2. […] The best effect was shown in MP41 with about 40% cytotoxicity at 100 μM.

[2] = tested on: MP46 uveal melanoma cells; type: cell-based, human; settings: 72 h
Protocol: as §1, with “treated/ΔOD(570-620)control×100. […]” for “treated/ΔOD(570-620)control×100.”
(§2) All the uveal melanoma cell lines were treated for 72 h with different concentrations of the peptides TAZ, “LV”, YAP and TEAD (SEQ ID NO: 35, 36, 37). Cytotoxicity was analysed as described in example 2. […]

[3] = tested on: MP66 uveal melanoma cells; assay: MTT cytotoxicity assay, MP66; type: cell-based, human; settings: MM66 (so in the source); 100 μM; 72 h
Protocol: as §1, with “treated/ΔOD(570-620)control×100. […]” for “treated/ΔOD(570-620)control×100.”
as §2

[4] = tested on: colon, lung and ovarian cancer cell lines; assay: MTT cytotoxicity, comparison of TAZ LV and VL peptides; type: cell-based, human; settings: all lines tested except ES2: HCT116, HT29, SW480, OVCAR8, A549, HT1975; 72 h; 0.1 to 100 μM (FIGS. 5 to 8)
Protocol: as §1

[5] = tested on: ES2 cells; assay: MTT cytotoxicity assay, ES2; type: cell-based; settings: 72 h, 0.1 to 100 μM (FIG. 7)
Protocol: as §1
ES2, IGROV-1, OVCAR8 and SKOV3 cell lines come from human ovarian cancer.
Cell-penetrating peptides (CPPs) comprising the binding site of TEAD to TAZ or YAP or of YAP to TEAD (TAZ, TEAD and YAP peptides, respectively) were chemically synthesized. The effect of the peptides on cell viability was assayed on several human ovarian cancer cell lines. All the ovarian cancer cell lines were treated for 72 h with different peptide concentrations. Cytotoxicity was analysed as described in example 2.

SMILES	pIC50 [1]	pIC50 [2]	cytotoxicity [3]	viability ([1]; human, 25 µM)	effect on cellular viability, TAZ “LV” compared with TAZ “VL” [4]	viability ([2]; human, 25 µM)	effect on cellular viability, TAZ “LV” compared with TAZ “VL” [5]
CC[C@H](C)[C@H](NC(=O)[C@H](CCCCN)NC(=O)[C@H](CCCCN)NC(=O)[C@H](CCCCN)NC(=O)[C@H](CCCCN)NC(=O)[C@@H](N)C(C)C)C(=O)N[C@@H](CCCCN)C(=O)N[C@@H](C)C(=O)N[C@@H](CCC(=O)O)C(=O)N[C@H](C(=O)N[C@@H](CCCCN)C(=O)N[C@H](C(=O)N[C@@H](CCCNC(=N)N)C(=O)N[C@@H](CC(C)C)C(=O)N[C@@H](CCC(N)=O)C(=O)N[C@@H](CC(C)C)C(=O)N[C@H](C(=O)N[C@@H](CCC(=O)O)C(=O)N[C@@H](Cc1ccccc1)C(=O)N[C@@H](CO)C(=O)N[C@@H](C)C(=O)N[C@@H](Cc1ccccc1)C(=O)N[C@H](C(=O)N[C@@H](CCC(=O)O)C(=O)N1CCC[C@H]1C(=O)N1CCC[C@H]1C(=O)N[C@@H](CC(=O)O)C(=O)N[C@@H](C)C(=O)N[C@H](C(=O)N[C@@H](CC(=O)O)C(=O)O)C(C)C)C(C)C)C(C)C)[C@@H](C)CC)[C@@H](C)CC [TEAD] (H-VKKKKIKAEIKIRLQLVEFSAFVEPPDAVD-OH; N-terminus and C-terminus assumed)	4.46	4.36	60%	–	–	–	–
CC[C@H](C)[C@H](NC(=O)[C@H](CCCCN)NC(=O)[C@H](CCCCN)NC(=O)[C@H](CCCCN)NC(=O)[C@H](CCCCN)NC(=O)[C@@H](N)C(C)C)C(=O)N[C@@H](CCCCN)C(=O)N[C@@H](C)C(=O)N[C@@H](CCC(=O)O)C(=O)N[C@H](C(=O)N[C@@H](CCCCN)C(=O)N[C@H](C(=O)N1CCC[C@H]1C(=O)N1CCC[C@H]1C(=O)N[C@@H](Cc1c[nH]cn1)C(=O)N[C@@H](C)C(=O)N[C@@H](Cc1ccccc1)C(=O)N[C@@H](Cc1ccccc1)C(=O)N[C@@H](CC(C)C)C(=O)N[C@H](C(=O)N[C@@H](CCCCN)C(=O)N[C@@H](Cc1ccccc1)C(=O)N[C@@H](Cc1c[nH]c2ccccc12)C(=O)N[C@@H](C)C(=O)N[C@@H](CC(=O)O)C(=O)N[C@@H](CC(C)C)C(=O)N[C@@H](CC(N)=O)C(=O)N[C@@H](Cc1c[nH]c2ccccc12)C(=O)NCC(=O)N1CCC[C@H]1C(=O)N[C@@H](CO)C(=O)NCC(=O)N[C@@H](CCC(=O)O)C(=O)N[C@@H](CCC(=O)O)C(=O)N[C@@H](C)C(=O)NCC(=O)N[C@@H](C)C(=O)NCC(=O)O)C(C)C)[C@@H](C)CC)[C@@H](C)CC [TAZ “LV”] (H-VKKKKIKAEIKIPPHAFFLVKFWADLNWGPSGEEAGAG-OH; N-terminus and C-terminus assumed)	–	–	–	about 20%	same effect	about 20%	more effective than TAZ “VL”
